Legend:
[1] = system: acute myeloid leukemia (AML); experiment: Clinical outcomes, newly diagnosed older AML subjects, sodium salt infusion with 7+3; assay type: in vivo, human; details: newly diagnosed AML ≥60 y
Experimental: In this study, 25 human subjects who were newly diagnosed at age 60 or older with acute myeloid leukemia (AML) were selected for this study. Subjects were not disqualified for prior treatment or diagnosis for MDS or CMML.
Each subject received a total of 19 infusions of 10 mg/kg/dose of the compound of Formula (I), administered as the sodium salt, over 10 days with a nominal infusion duration of 20 minutes. The formulation for the infusion solution was as follows: […]
The first dose of a compound of Formula (I) was administered 24 hours±1 hour prior to the first dose of 7+3 (cytarabine and idarubicin) chemotherapy as a sentinel dose to evaluate the effect of the compound of Formula (I) alone (i.e., a single dose of 10 mg/kg the day before the first chemotherapy day). The compound of Formula (I) was then administered every 12 hours±1 hour on chemotherapy days (i.e., 20 mg/kg per day on chemotherapy days) and for two days following the last dose of chemotherapy. […] 7+3 (cytarabine and idarubicin) chemotherapy was administered on Days 2-8 comprising a continuous IV infusion of cytarabine 100 mg/m^2/d over seven days (168 hours, from days 2-8), and idarubicin 12 mg/m^2/d IV for the first three consecutive days ([…], from days 2-4).
The clinical outcome for each subject was assessed at the time of count recovery following completion of induction chemotherapy. Subjects were assigned to one of four response groups: complete remission (“CR”); complete remission with incomplete count recovery (“CRi”); morphologic leukemia-free state (“MLFS”); persistent disease (“PD”). Complete remission was defined as bone marrow blasts <5%; absence of circulating blasts and blasts with Auer rods; absence of extramedullary disease; ANC ≥1.0×10^9/L and platelets ≥100,000×10^9/L. Complete remission with incomplete recovery was defined as: all CR criteria except for residual neutropenia (<1.0×10^9/L) or thrombocytopenia (<100,000×10^9/L). Morphologic leukemia-free state was defined as: bone marrow blasts <5%; absence of blasts with Auer rods; absence of extramedullary disease; no hematologic recovery required. Persistent disease was defined as: bone marrow blasts >5%.

[2] = Exposure-response analysis for adverse events; assay type: in vivo, human; details: 53 R/R and 25 newly diagnosed older AML subjects, with chemotherapy
Experimental: For Example 15, Exposure-Response (“E-R”) analysis evaluating adverse events against PK metrics was conducted. The sample population for Example 15 included 53 subjects with relapsed/refractory (R/R) AML and 25 older subjects (aged 60 years or older) with newly diagnosed AML. R/R AML subjects were administered MEC chemotherapy and 5, 10, and 20 mg/kg of a compound of Formula (I) BID (i.e., 10, 20, and 40 mg/kg per day). The older subjects (aged 60 years or older) with newly diagnosed AML were administered 7+3 chemotherapy and 10 mg/kg of a compound of Formula (I) BID (i.e., 20 mg/kg per day).
Exposure metrics for the adverse events (“AE”) analysis were generated using the same Pop-PK model described in Example 14. […] Cumulative AUC was determined through each study day. For each metric/day combination, percentile rankings and normalized values were determined. For example, the median of Day 6 AUC values was determined, and normalized values were obtained by dividing each value by the median. In addition, these Day 6 AUC values were ranked, and then multiplied by 100% divided by the number of values to obtain a percentile value.
Adverse events (“AEs”) were classified according the Common Terminology Criteria for Adverse Events (“CTCAE”). […]

[3] = system: human AML blasts; experiment: Orthotopic model of human AML with cytarabine and DNR; assay type: in vivo, NOD-SCID mice
Experimental: The impact of a compound of Formula (I) on survival was evaluated in NOD-SCID mice in an orthotopic model of human AML in combination with cytarabine and DNR.
10 mg/kg per day was identified as the minimally active murine dose that augmented cytarabine and DNR survival benefits.

[4] = system: relapsed/refractory (R/R) AML; experiment: Exposure-response analysis for efficacy; assay type: in vivo, human; details: 46 R/R AML subjects; 5, 10, 20 mg/kg BID with MEC
Experimental: To generate exposure metrics for the analyses in Example 14 and Example 15, a Pop-PK analysis, based on sampling of plasma concentrations (Cp) of the compound of Formula (I) during induction treatment, was conducted to identify an appropriate PK model, key covariates of the model, and to generate post hoc population PK metrics for all patients sampled for PK. The Pop-PK analysis comprised 59 subjects, 46 subjects diagnosed with relapsed/refractory (R/R) AML who were administered a compound of Formula (I) with MEC chemotherapy and 13 older subjects (aged 60 years or older) with newly diagnosed AML who were administered a compound of Formula (I) with 7+3 chemotherapy. Pop-PK modeling identified a three compartment model with renal function as the only significant covariate.
For Example 14, Exposure-Response (“E-R”) analysis evaluating efficacy measures against PK metrics was conducted using clinical response efficacy data from the 46 R/R AML subjects. R/R AML subjects were administered MEC chemotherapy and 5, 10, and 20 mg/kg of a compound of Formula (I) BID (i.e. 10, 20, and 40 mg/kg per day).
Exposure metrics were generated using the Pop-PK model described above.
Using clinical measures of efficacy described in Example 13 each subject was assigned to one of five clinical response categories: CR, CRi, MLFS, PD, and death. […]

## CC[C@@H]1CC(C(=O)NCCNC(=O)CCOCCOCCOCCOCCOCCOCCOCCOCCOCCOCCOCCOC)C[C@@H](O[C@@H]2O[C@@H](CO)[C@H](O)C(O[C@@H](CC3CCCCC3)C(=O)O)C2NC(C)=O)C1OC1O[C@@H](C)C(O)[C@H](O)[C@@H]1O (some centres unmarked) [compound of Formula (I)]
[1]
  one-year overall survival rate, all subjects: 52%
  one-year survival rate, MRD negative subjects: 60%
  severe oral mucositis rate: 0%
[1]; 95% CI 3-12.6
  median event-free survival: 9.2 months
[1]; 95% CI lower 9.9
  median overall survival: 12.6 months
[1]; N = 25
  Oral Mucositis Events Grades 3/4: 0 n
[2]
  adverse events vs exposure (AUC, cumulative AUC, Cmax): no strong tendency toward increased AEs, nor increased severity of AEs with exposure
[3]; 5 mg/kg BID 10 days with cytarabine and DNR
  tumor cell chemosensitivity as determined by circulating leukemic cells: marked enhancement of tumor cell chemosensitivity
[3]; 40 mg/kg with cytarabine and DNR
  numbers of AML blasts vs cytarabine and DNR alone: fewer numbers of AML blasts
[3]; with cytarabine and DNR
  minimally active murine dose that augmented cytarabine and DNR survival benefits: 10 mg/kg per day
[4]
  exposure-response for remission (Fx > IC50, Fx > IC90, Cmax, AUC vs response category): significant overlap in all exposure-response metrics relating to remission for those subjects attaining CR and those with PD
